Target: HCV RNA-dependent RNA polymerase (UniProt P27958)
Assay: Inhibitory activity against HCV RNA-dependent RNA polymerase (Experiment Example 1)
Assay type: biochemical, hepatitis C virus (HCV)
Conditions: Experimental example 1; poly(A) template, oligo(U)12 primer, 3H-UTP substrate, enzyme reaction 25° C. for 30 min; read-out: IC50 for HCV RdRp (converted)
Text: Inhibitory Activity Against HCV RNA-Dependent RNA Polymerase
(1) Preparation of Hepatitis C Virus (HCV) RNA-Dependent RNA Polymerase
It was collected several cDNA clones of HCV RNA-dependent RNA polymerase from plasma of people infected with HCV, RNA-dependent RNA polymerase was expressed by using insect cell or E. coli from these clones. RNA-dependent RNA polymerase in cell extract was purified by anion-exchange chromatography, heparin-affinity chromatography, poly U-affinity chromatography, cation-exchange chromatography, gel filtration chromatography, and the like. The preparation was done at about 4° C. under low temperature condition, as solution dissolving enzyme was used Tris buffer (pH 7.5) containing ethylenediamine tetraacetic acid (1 mM), dithiothreitol (10 mM), and glycerol (20%). The purified enzyme was kept at 4° C. or −20° C. until it was used for assay.
(2) Method of HCV RNA-Dependent RNA Polymerase Assay
(1) In polypropylene vessel was added buffer I*^1)(10.5 μL) containing Tris-HCl (100 mM, pH 7.5), magnesium chloride (25 mM), dithiothreitol (5 mM), potassium chloride (125 mM), ethylenediamine tetraacetic acid (5 mM), and then were added poly(A)*^2) aqueous solution (100 μg/mL, 10.5 μL), oligo(U)12*^3) aqueous solution (10 μg/mL, 10.5 μL), and water (8 μL), and the mixture was mixed slowly.
*1) All of water used as experimental material in enzyme reaction were carried out inactivation treatment of Rnase with diethylpyrocarbonate. The inactivation treatment with diethylpyrocarbonate was carried out as follows, 1) diethylpyrocarbonate (0.1 g) was dissolved in de-ionized water (100 mL), 2) the solution was stood at 37° C. for 24 h, 3) kept in autoclave at 120° C. for 30 min.
*2) Poly(A) is single strand polynucleotide composed with only adenylic acid. It was used as template.
*3) Oligo(U)12 is single strand oligonucleotide composed with only 12 element of uridylic acid. It was used as primer.
(2) Next, to the mixture was added a solution (10.5 μL) of RNA-dependent RNA polymerase, and preincubation was carried out at 25° C. for 60 min.
(3) A solution (50 μL) preincubated described in (2) was added into 96-wells microtiter plate divided test compound (5.26 μL per well) dissolved with dimethylsulfoxide or water.
*4) UTP is uridine triphosphate. It was used as substrate.
(5) When the enzyme reaction was passed for 30 min, to the mixture was added a aqueous solution (50 mM, 50 μL) of ethylenediamine tetraacetic acid disodium and the enzyme reaction was stopped.
(6) Next, after all volume of sample of (5) was transferred on filter introduced diethylaminoethyl group (henceforth shortening as DEAE-filter mat) by using cell harvester, was carried the washing twice with sodium phosphate buffer (0.25 M, pH 7.0) for 10 sec and the washing once with deionized water for 10 sec.
(7) After the washing, DEAE-filter mat was dried at 95° C. for 15 min and sealed together with liquid scintillator (10 mL) into sample bag.
(8) Radioactivity was measured by using scintillation counter.
(9) The percentage of inhibition was calculated by replacing the measured value of radioactivity (unit; ccpm) into the following expression.
The percentage of inhibition=100−(the measured value in presence of test compound−the measured value in absence of enzyme)÷(the measured value in absence of test compound−the measured value in absence of enzyme)×100.
(10) The concentration of test compound inhibiting 50% (IC50) was obtained from the percentage of inhibition calculated in (9) and the used concentration of test compound inhibiting.
In case of the percentage of inhibition is A % when α μg/mL of the compound is used and the percentage of inhibition is B % when β μg/ml of the compound is used, IC50 was obtained from the following expression. Provided that it is theorized as A≧50>B. […]

| SMILES | IC50 |
| --- | --- |
| O=C1NC(=S)S/C1=C(/O)c1ccco1 [Compound I-2, 5-[1-(Furan-2-yl)-1-hydroxy]methylene-2-thioxothiazolidin-4-one] | 3.96 µM |
| Cc1ccc(C(O)=C2SC(=S)NC2=O)o1 [Compound I-22, 5-[1-Hydroxy-1-(5-methylfuran-2-yl)]methylene-2-thioxothiazolidin-4-one] | 20.3 µM |
| Cc1cnoc1C(O)=C1SC(=S)NC1=O [Compound I-27, 5-[1-Hydroxy-1-(4-methylisoxazol-5-yl)]methylene-2-thioxothiazolidin-4-one] | 6.6 µM |
| O=C1NC(=S)SC1=C(O)c1ccon1 [Compound I-29, 5-[1-(Isoxazol-3-yl)1-hydroxy]methylene-2-thioxothiazolidin-4-one] | 7.89 µM |
| O=C1NC(=S)SC1=C(O)c1ccno1 [Compound I-30, 5-[1-(Isoxazol-5-yl)1-hydroxy]methylene-2-thioxothiazolidin-4-one] | 29.8 µM |
| O=C1NC(=S)SC1=C(O)c1nn[nH]n1 [Compound I-32, 5-[1-Hydroxy-1-(2H-tetrazol-5-yl)]methylene-2-thioxothiazolidin-4-one] | 14 µM |
| O=C1NC(=S)SC1=C(O)c1nc[nH]n1 [Compound I-34, 5-[1-Hydroxy-1-(1H-1,2,4-triazol-3-yl)]methylene-2-thioxothiazolidin-4-one] | 4.03 µM |
| O=C1NC(=S)SC1=C(O)c1ncccn1 [Compound I-35, 5-[1-Hydroxy-1-(pyrimidin-2-yl)]methylene-2-thioxothiazolidin-4-one] | 5.85 µM |
| O=C1NC(=S)SC1=C(O)c1cnccn1 [Compound I-36, 5-[1-Hydroxy-1-(pyrazin-2-yl)]methylene-2-thioxothiazolidin-4-one] | 31.8 µM |
| O=C1NC(=S)SC1=C(O)c1ccccn1 [Compound I-37, 5-[1-Hydroxy-1-(pyridin-2-yl)]methylene-2-thioxothiazolidin-4-one] | 12.6 µM |
| Cc1nnc(C(O)=C2SC(=S)NC2=O)o1 [Compound I-40, 5-[1-Hydroxy-1-(5-methyl-1,3,4-oxadiazol-2-yl)]methylene-2-thioxothiazolidin-4-one] | 8.22 µM |

Same assay, conditions: read-out: IC50 for HCV RdRp; Experimental example 1; poly(A) template, oligo(U)12 primer, 3H-UTP substrate, enzyme reaction 25° C. for 30 min

| SMILES | IC50 |
| --- | --- |
| Cc1cnc(/C(O)=C2\SC(=S)NC2=O)o1 [Compound I-1, 5-[1-Hydroxy-1-(5-methyloxazol-2-yl)]methylene-2-thioxothiazolidin-4-one] | 1.03 µM |

Target: T1, RNA-dependent RNA polymerase (RdRp) of bovine virus diarrhea virus (BVDV) (Bovine viral diarrhea virus, UniProt P19711)
T1 construct: RNA-dependent RNA polymerase (RdRp) of bovine virus diarrhea virus (BVDV)
Assay: Inhibitory activity against BVDV RNA-dependent RNA polymerase (Experiment Example 2)
Assay type: biochemical
Conditions: Experimental example 2; same way as experiment example 1
Text: Inhibitory Activity Against BVDV RNA-Dependent RNA Polymerase
Inhibitory activity against RNA-dependent RNA polymerase (RdRp) of bovine virus diarrhea virus (BVDV) was experimented too in the same way in experiment example 1.

T1 sequence (P19711 3270-3988): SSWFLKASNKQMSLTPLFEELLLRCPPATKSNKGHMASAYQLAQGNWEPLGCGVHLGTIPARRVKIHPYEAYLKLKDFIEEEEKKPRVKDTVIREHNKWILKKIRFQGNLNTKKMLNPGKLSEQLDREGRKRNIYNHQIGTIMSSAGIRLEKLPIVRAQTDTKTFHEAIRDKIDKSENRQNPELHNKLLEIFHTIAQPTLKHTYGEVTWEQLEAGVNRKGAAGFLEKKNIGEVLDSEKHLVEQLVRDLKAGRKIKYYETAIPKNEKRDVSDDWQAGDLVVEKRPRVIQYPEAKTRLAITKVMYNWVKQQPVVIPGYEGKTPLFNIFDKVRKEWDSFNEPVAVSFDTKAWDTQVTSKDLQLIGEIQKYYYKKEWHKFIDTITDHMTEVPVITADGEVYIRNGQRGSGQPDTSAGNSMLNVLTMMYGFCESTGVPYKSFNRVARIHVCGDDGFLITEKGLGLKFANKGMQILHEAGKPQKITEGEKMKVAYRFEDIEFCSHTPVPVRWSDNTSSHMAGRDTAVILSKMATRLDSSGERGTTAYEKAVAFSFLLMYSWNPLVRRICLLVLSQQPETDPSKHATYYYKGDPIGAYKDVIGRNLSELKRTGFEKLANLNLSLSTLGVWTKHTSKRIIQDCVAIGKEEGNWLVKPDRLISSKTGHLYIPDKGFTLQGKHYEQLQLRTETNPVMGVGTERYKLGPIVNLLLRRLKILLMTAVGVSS

| SMILES | IC50 |
| --- | --- |
| Cc1cnc(/C(O)=C2\SC(=S)NC2=O)o1 [Compound I-1, 5-[1-Hydroxy-1-(5-methyloxazol-2-yl)]methylene-2-thioxothiazolidin-4-one] | 10.3 µM |
| O=C1NC(=S)S/C1=C(/O)c1ccco1 [Compound I-2, 5-[1-(Furan-2-yl)-1-hydroxy]methylene-2-thioxothiazolidin-4-one] | 79.2 µM |
| Cc1ccc(C(O)=C2SC(=S)NC2=O)o1 [Compound I-22, 5-[1-Hydroxy-1-(5-methylfuran-2-yl)]methylene-2-thioxothiazolidin-4-one] | 153 µM |
| Cc1cnoc1C(O)=C1SC(=S)NC1=O [Compound I-27, 5-[1-Hydroxy-1-(4-methylisoxazol-5-yl)]methylene-2-thioxothiazolidin-4-one] | 74.3 µM |
| O=C1NC(=S)SC1=C(O)c1ccon1 [Compound I-29, 5-[1-(Isoxazol-3-yl)1-hydroxy]methylene-2-thioxothiazolidin-4-one] | 118 µM |
| O=C1NC(=S)SC1=C(O)c1ccno1 [Compound I-30, 5-[1-(Isoxazol-5-yl)1-hydroxy]methylene-2-thioxothiazolidin-4-one] | 140 µM |
| O=C1NC(=S)SC1=C(O)c1nn[nH]n1 [Compound I-32, 5-[1-Hydroxy-1-(2H-tetrazol-5-yl)]methylene-2-thioxothiazolidin-4-one] | 161 µM |
| O=C1NC(=S)SC1=C(O)c1nc[nH]n1 [Compound I-34, 5-[1-Hydroxy-1-(1H-1,2,4-triazol-3-yl)]methylene-2-thioxothiazolidin-4-one] | 61.3 µM |
| O=C1NC(=S)SC1=C(O)c1ncccn1 [Compound I-35, 5-[1-Hydroxy-1-(pyrimidin-2-yl)]methylene-2-thioxothiazolidin-4-one] | 142 µM |
| O=C1NC(=S)SC1=C(O)c1cnccn1 [Compound I-36, 5-[1-Hydroxy-1-(pyrazin-2-yl)]methylene-2-thioxothiazolidin-4-one] | 159 µM |
| O=C1NC(=S)SC1=C(O)c1ccccn1 [Compound I-37, 5-[1-Hydroxy-1-(pyridin-2-yl)]methylene-2-thioxothiazolidin-4-one] | 151 µM |
| Cc1nnc(C(O)=C2SC(=S)NC2=O)o1 [Compound I-40, 5-[1-Hydroxy-1-(5-methyl-1,3,4-oxadiazol-2-yl)]methylene-2-thioxothiazolidin-4-one] | 21.8 µM |

Tested on: not given
Assay: not given
Conditions: not given

| SMILES | melting point |
| --- | --- |
| Cc1cnc(/C(O)=C2\SC(=S)NC2=O)o1 [Compound I-1, 5-[1-Hydroxy-1-(5-methyloxazol-2-yl)]methylene-2-thioxothiazolidin-4-one] | 243 to 245 °C (dec.) |
| O=C1NC(=S)S/C1=C(/O)c1ccco1 [Compound I-2, 5-[1-(Furan-2-yl)-1-hydroxy]methylene-2-thioxothiazolidin-4-one] | 230 to 235 °C (dec.) |
| Cc1ccc(C(O)=C2SC(=S)NC2=O)o1 [Compound I-22, 5-[1-Hydroxy-1-(5-methylfuran-2-yl)]methylene-2-thioxothiazolidin-4-one] | 195 to 198 °C (dec.) |
| Cc1cnoc1C(O)=C1SC(=S)NC1=O [Compound I-27, 5-[1-Hydroxy-1-(4-methylisoxazol-5-yl)]methylene-2-thioxothiazolidin-4-one] | 230 to 234 °C (dec.) |
| O=C1NC(=S)SC1=C(O)c1ccon1 [Compound I-29, 5-[1-(Isoxazol-3-yl)1-hydroxy]methylene-2-thioxothiazolidin-4-one] | 210 to 215 °C (dec.) |
| O=C1NC(=S)SC1=C(O)c1ccno1 [Compound I-30, 5-[1-(Isoxazol-5-yl)1-hydroxy]methylene-2-thioxothiazolidin-4-one] | 195 to 202 °C (dec.) |
| O=C1NC(=S)SC1=C(O)c1nn[nH]n1 [Compound I-32, 5-[1-Hydroxy-1-(2H-tetrazol-5-yl)]methylene-2-thioxothiazolidin-4-one] | 188 to 193 °C (dec.) |
| O=C1NC(=S)SC1=C(O)c1nc[nH]n1 [Compound I-34, 5-[1-Hydroxy-1-(1H-1,2,4-triazol-3-yl)]methylene-2-thioxothiazolidin-4-one] | 285 to 290 °C (dec.) |
| O=C1NC(=S)SC1=C(O)c1ncccn1 [Compound I-35, 5-[1-Hydroxy-1-(pyrimidin-2-yl)]methylene-2-thioxothiazolidin-4-one] | > 250 °C (dec.) |
| O=C1NC(=S)SC1=C(O)c1cnccn1 [Compound I-36, 5-[1-Hydroxy-1-(pyrazin-2-yl)]methylene-2-thioxothiazolidin-4-one] | > 250 °C (dec.) |
| O=C1NC(=S)SC1=C(O)c1ccccn1 [Compound I-37, 5-[1-Hydroxy-1-(pyridin-2-yl)]methylene-2-thioxothiazolidin-4-one] | > 250 °C (dec.) |
| Cc1nnc(C(O)=C2SC(=S)NC2=O)o1 [Compound I-40, 5-[1-Hydroxy-1-(5-methyl-1,3,4-oxadiazol-2-yl)]methylene-2-thioxothiazolidin-4-one] | 230 to 237 °C (dec.) |
